Laboratory results taken from patent US10500170B2, “Composition and method for treating neurological disease” (Osmotica Kereskedelmi és Szolgáltató Korlátolt Felelõsségû …, priority 2018, dated 2019).

Assays:
[1] = Solubility of amantadine HCl in water; type: physicochemical; conditions: 160 mg, 240 mg and 320 mg of amantadine HCl
plasma proteins = conditions: concentration range of 0.1 to 2.0 μg/mL; cited from earlier work
[2] = cited from earlier work
[3] = cited from earlier work; remark: listed apart in the source

Solubility in water [1]: soluble in 250 mL water
Compound: NC12CC3CC(CC(C3)C1)C2 [Amantadine, amantadine]
bound to plasma proteins (plasma proteins): 67%
elimination half-life change in renal insufficiency ([2]; creatinine clearance less than 40 mL/min/1.73 m^2): increases two to three fold or greater
elimination half-life ([2]; patients on chronic maintenance hemodialysis): averages eight days
volume of distribution ([3]; after intravenous administration): 3 to 8 L/kg
reduction of renal clearance of amantadine ([3]; coadministration of quinine or quinidine): about 30%
administered dose excreted unchanged in urine ([3]; in vivo): approximately 85%
metabolism as share of the total clearance ([3]; in vivo): 5-15%
